From US12421191B2, “3-hydroxyoxindole derivatives as CRHR2 antagonist” (RaQualia Pharma Inc., priority 2020, dated 2025)

target: T1, human CRHR2-alpha (Homo sapiens, UniProt Q13324); experiment: cAMP functional assay for human CRHR2 (LANCE Ultra TR-FRET); format: cell-based; details: inhibition of cAMP production in CHO-K1 cells stably expressing human CRHR2-alpha, EC90 of human urocortin2 as agonist; read-out: IC50 against CRHR2
T1 construct: host or cells: CHO-K1
T1 sequence (Q13324 1-411): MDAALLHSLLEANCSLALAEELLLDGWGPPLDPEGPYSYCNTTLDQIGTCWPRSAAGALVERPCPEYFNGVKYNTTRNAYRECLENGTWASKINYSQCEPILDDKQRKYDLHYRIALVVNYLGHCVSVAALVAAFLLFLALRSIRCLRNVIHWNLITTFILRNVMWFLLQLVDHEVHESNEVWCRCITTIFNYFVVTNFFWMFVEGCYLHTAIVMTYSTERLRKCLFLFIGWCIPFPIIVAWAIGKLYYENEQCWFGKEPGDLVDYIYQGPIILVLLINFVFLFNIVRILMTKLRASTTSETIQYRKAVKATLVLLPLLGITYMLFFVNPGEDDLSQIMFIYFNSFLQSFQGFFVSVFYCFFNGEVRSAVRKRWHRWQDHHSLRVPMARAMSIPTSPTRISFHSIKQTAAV
Method: cAMP functional assay for human CRHR2 The ability of the compounds of this invention to inhibit either CRHR2 is assessed by 3′,5′-cyclic adenosine monophosphate (cAMP) production in cells using the LANCE Ultra cAMP assay kit (ParkinElmer), which are designed based on the homogeneous time-resolved fluorescence resonance energy transfer (TR-FRET) immunoassay.
CHO-K1 (Chinese hamster ovary) cells stably expressing human CRHR2-alpha (DiscoveRX, Cat. 95-0048C2) are grown in HAM's F12 media supplemented with 10% fetal bovine serum (FBS), 100 units/mL penicillin G, 100 microg/mL hygromycin and 0.5 microg/mL geneticin at 37° C. in 5% CO2 humidified incubator to 80% confluence. After 7 hours starvation treatment in culture media containing 0.1% FBS, the cells are washed with Hanks balanced salt solution (HBSS) and cryopreserved.
For cAMP assay, frozen cells are thawed and washed with HBSS, followed by resuspending cells in assay buffer (HBSS containing 0.1% bovine serum albumin, 0.5 mM isobutylmethylxanthine and 5 mM Hepes, pH 7.4) at the appropriate concentration for the assay. The cell suspensions are plated on 384-well microplates (Greiner Bio-One) at a density of 4,000 cells per well. After preincubating the cells with various concentrations of the compounds for 30 min at 25° C., an assay buffer containing EC90 concentration of agonist is added and the cells are incubated for 30 min at 25° C. Human urocortin2 (Peptide Institute) is used as agonists for CRHR2. For the termination of assay, europium-labeled cAMP tracer and ULight (registered trademark) dye labeled cAMP antibodies, both prepared with Lance-Ultra cAMP detection reagent (PerkinElmer) are added in the plate and incubate for 60 min at 25° C. After incubation, TR-FRET signal is detected by EnVision plate reader (PerkinElmer). The IC50 values for compounds are calculated from dose-response curves by fitting the percent inhibition using XLfit (ID Business Solutions).

Row | SMILES | IC50
1 | COc1ccc(F)c(C2(O)C(=O)N(C[C@H]3CC[C@H](NC(=O)c4cc(Cl)cnc4C(F)F)CC3)c3ccccc32)c1 (stereo partly shown) [Example 74, 5-chloro-2-(difluoromethyl)-N-((1r,4r)-4-((3-(2-fluoro-5-methoxyphenyl)-3-hydroxy-2-oxoindolin-1-yl)methyl)cyclohexyl) nicotinamide] | < 200 nM
2 | O=C(N[C@H]1CC[C@H](CN2C(=O)C(O)(c3ccc(F)cn3)c3ccc(F)cc32)CC1)c1cc(Cl)cnc1C(F)F (stereo partly shown) [Example 79, 5-chloro-2-(difluoromethyl)-N-((1r,4r)-4-((6-fluoro-3-(5-fluoropyridin-2-yl)-3-hydroxy-2-oxoindolin-1-yl)methyl)cyclohexyl) nicotinamide] | < 200 nM
3 | O=C(N[C@H]1CC[C@H](CN2C(=O)C(O)(c3ccccc3F)c3ccc(F)cc32)CC1)c1cc(Cl)cnc1C(F)F (stereo partly shown) [Example 83, 5-chloro-2-(difluoromethyl)-N-((1r,4r)-4-((6-fluoro-3-(2-fluorophenyl)-3-hydroxy-2-oxoindolin-1-yl)methyl)cyclohexyl) nicotinamide] | < 200 nM
4 | O=C(N[C@H]1CC[C@H](CN2C(=O)C(O)(c3ccncc3F)c3ccc(F)cc32)CC1)c1cc(Cl)cnc1C(F)F (stereo partly shown) [Example 85, 5-chloro-2-(difluoromethyl)-N-((1r,4r)-4-((6-fluoro-3-(3-fluoropyridin-4-yl)-3-hydroxy-2-oxoindolin-1-yl)methyl)cyclohexyl) nicotinamide] | < 200 nM
5 | O=C(N[C@H]1CC[C@H](CN2C(=O)C(O)(c3ccsc3)c3ccccc32)CC1)c1cc(Cl)cnc1C(F)F (stereo partly shown) [Example 92, 5-chloro-2-(difluoromethyl)-N-((1r,4r)-4-((3-hydroxy-2-oxo-3-(thiophen-3-yl)indolin-1-yl)methyl)cyclohexyl) nicotinamide] | < 200 nM
6 | O=C(N[C@H]1CC[C@H](CN2C(=O)C(O)(c3ccccc3F)c3cc(F)ccc32)CC1)c1cc(Cl)cnc1C(F)F (stereo partly shown) [Example 93, 5-chloro-2-(difluoromethyl)-N-((1r,4r)-4-((5-fluoro-3-(2-fluorophenyl)-3-hydroxy-2-oxoindolin-1-yl)methyl)cyclohexyl) nicotinamide] | < 200 nM
7 | O=C(N[C@H]1CC[C@H](CN2C(=O)C(O)(c3ccccc3F)c3cccnc32)CC1)c1cc(Cl)cnc1C(F)F (stereo partly shown) [Example 94, 5-chloro-2-(difluoromethyl)-N-((1r,4r)-4-((3-(2-fluorophenyl)-3-hydroxy-2-oxo-2,3-dihydro-1H-pyrrolo[2,3-b]pyridin-1-yl)methyl)cyclohexyl) nicotinamide] | < 200 nM
8 | O=C(N[C@H]1CC[C@H](CN2C(=O)C(O)(c3sccc3F)c3ccccc32)CC1)c1cc(Cl)cnc1C(F)F (stereo partly shown) [Example 95, 5-chloro-2-(difluoromethyl)-N-((1r,4r)-4-((3-(3-fluorothiophen-2-yl)-3-hydroxy-2-oxoindolin-1-yl)methyl)cyclohexyl) nicotinamide] | < 200 nM
9 | O=C(N[C@H]1CC[C@H](CN2C(=O)C(O)(c3cc(F)cs3)c3ccccc32)CC1)c1cc(Cl)cnc1C(F)F (stereo partly shown) [Example 98, 5-chloro-2-(difluoromethyl)-N-((1r,4r)-4-((3-(4-fluorothiophen-2-yl)-3-hydroxy-2-oxoindolin-1-yl)methyl)cyclohexyl) nicotinamide] | < 200 nM
10 | COc1ccc(C2(O)C(=O)N(C[C@H]3CC[C@H](NC(=O)c4cc(Cl)cnc4C(F)F)CC3)c3ccccc32)s1 (stereo partly shown) [Example 99, 5-chloro-2-(difluoromethyl)-N-((1r,4r)-4-((3-hydroxy-3-(5-methoxythiophen-2-yl)-2-oxoindolin-1-yl)methyl)cyclohexyl) nicotinamide] | < 200 nM
11 | COc1ccc2c(c1)N(C[C@H]1CC[C@H](NC(=O)c3cc(Cl)cnc3C(F)F)CC1)C(=O)C2(O)c1ccccc1F (stereo partly shown) [Example 105, 5-chloro-2-(difluoromethyl)-N-((1r,4r)-4-((3-(2-fluorophenyl)-3-hydroxy-6-methoxy-2-oxoindolin-1-yl)methyl)cyclohexyl) nicotinamide] | < 200 nM
12 | O=C(N[C@H]1CC[C@H](CN2C(=O)C(O)(c3cccc(F)c3F)c3ccccc32)CC1)c1cc(Cl)cnc1C(F)(F)F (stereo partly shown) [Example 113, 5-chloro-N-((1r,4r)-4-((3-(2,3-difluorophenyl)-3-hydroxy-2-oxoindolin-1-yl)methyl)cyclohexyl)-2-(trifluoromethyl)nicotinamide] | < 200 nM
13 | COc1cc(C2(O)C(=O)N(C[C@H]3CC[C@H](NC(=O)c4cc(Cl)cnc4C(F)F)CC3)c3cc(F)ccc32)c(F)cn1 (stereo partly shown) [Example 115, 5-chloro-2-(difluoromethyl)-N-((1r,4r)-4-((6-fluoro-3-(5-fluoro-2-methoxypyridin-4-yl)-3-hydroxy-2-oxoindolin-1-yl)methyl)cyclohexyl) nicotinamide] | < 200 nM
14 | O=C(N[C@H]1CC[C@H](CN2C(=O)C(O)(c3cccc(F)c3F)c3ccc(F)cc32)CC1)c1cc(Cl)cnc1C(F)F (stereo partly shown) [Example 116, 5-chloro-2-(difluoromethyl)-N-((1r,4r)-4-((3-(2,3-difluorophenyl)-6-fluoro-3-hydroxy-2-oxoindolin-1-yl)methyl)cyclohexyl) nicotinamide] | < 200 nM
15 | O=C(N[C@H]1CC[C@H](CN2C(=O)C(O)(c3cccc(Cl)c3F)c3ccc(F)cc32)CC1)c1cc(Cl)cnc1C(F)F (stereo partly shown) [Example 117, 5-chloro-N-((1r,4r)-4-((3-(3-chloro-2-fluorophenyl)-6-fluoro-3-hydroxy-2-oxoindolin-1-yl)methyl)cyclohexyl)-2-(difluoromethyl)nicotinamide] | < 200 nM
16 | O=C(N[C@H]1CC[C@H](CN2C(=O)C(O)(c3cc(F)ccc3F)c3ccc(F)cc32)CC1)c1cc(Cl)cnc1C(F)F (stereo partly shown) [Example 118, 5-chloro-2-(difluoromethyl)-N-((1r,4r)-4-((3-(2,5-difluorophenyl)-6-fluoro-3-hydroxy-2-oxoindolin-1-yl)methyl)cyclohexyl)nicotinamide] | < 200 nM
17 | O=C(N[C@H]1CC[C@H](CN2C(=O)C(O)(c3ccc(Cl)cn3)c3ccc(F)cc32)CC1)c1cc(Cl)cnc1C(F)F (stereo partly shown) [Example 119, 5-chloro-N-((1r,4r)-4-((3-(5-chloropyridin-2-yl)-6-fluoro-3-hydroxy-2-oxoindolin-1-yl)methyl)cyclohexyl)-2-(difluoromethyl)nicotinamide] | < 200 nM
18 | O=C(N[C@H]1CC[C@H](CN2C(=O)C(O)(c3cccc(F)c3F)c3cc(F)ccc32)CC1)c1cc(Cl)cnc1C(F)F (stereo partly shown) [Example 123, 5-chloro-2-(difluoromethyl)-N-((1r,4r)-4-((3-(2,3-difluorophenyl)-5-fluoro-3-hydroxy-2-oxoindolin-1-yl)methyl)cyclohexyl) nicotinamide] | < 200 nM
19 | COc1cc(C2(O)C(=O)N(C[C@H]3CC[C@H](NC(=O)c4cc(Cl)cnc4C(F)F)CC3)c3ccc(F)cc32)c(F)cn1 (stereo partly shown) [Example 124, 5-chloro-2-(difluoromethyl)-N-((1r,4r)-4-((5-fluoro-3-(5-fluoro-2-methoxypyridin-4-yl)-3-hydroxy-2-oxoindolin-1-yl)methyl)cyclohexyl) nicotinamide] | < 200 nM
20 | O=C(N[C@H]1CC[C@H](CN2C(=O)C(O)(c3ccc(Cl)cn3)c3cc(F)ccc32)CC1)c1cc(Cl)cnc1C(F)F (stereo partly shown) [Example 125, 5-chloro-N-((1r,4r)-4-((3-(5-chloropyridin-2-yl)-5-fluoro-3-hydroxy-2-oxoindolin-1-yl)methyl)cyclohexyl)-2-(difluoromethyl)nicotinamide] | < 200 nM
21 | COc1ccc(F)c(C2(O)C(=O)N(C[C@H]3CC[C@H](NC(=O)c4cc(Cl)cnc4C)CC3)c3ccccc32)c1 (stereo partly shown) [Example 128, 5-chloro-N-((1r,4r)-4-((3-(2-fluoro-5-methoxyphenyl)-3-hydroxy-2-oxoindolin-1-yl)methyl)cyclohexyl)-2-methylnicotinamide] | < 200 nM
22 | Cc1cc(C2(O)C(=O)N(C[C@H]3CC[C@H](NC(=O)c4cc(Cl)cnc4C(F)F)CC3)c3ccccc32)cs1 (stereo partly shown) [Example 130, 5-chloro-2-(difluoromethyl)-N-((1r,4r)-4-((3-hydroxy-3-(5-methylthiophen-3-yl)-2-oxoindolin-1-yl)methyl)cyclohexyl) nicotinamide] | < 200 nM
